Experimental data reported in US20060104978A1, “Methods and compositions for PDGF-C activation and inhibition” (LUDWIG INSTITUTE FOR CANCER RESEARCH, priority 2003, published 2006).

Key:
[1] = tested on: tPA-deficient fibroblasts; test: WST-1 growth assay of primary fibroblasts in serum-free medium; assay type: cell-based, mouse; settings: 50 ng/ml added to serum-free culture medium, 24 hours
Procedure: It was observed that primary fibroblasts derived from tPA-deficient mice grew more slowly in culture than fibroblasts derived from wild-type animals, raising the possibility that activation of latent PDGF-CC by tPA generated autocrine and paracrine growth stimulatory loops for primary fibroblasts in culture. To analyze this effect, isolated wild-type and tPA-deficient fibroblasts were serum-starved overnight, and the growth of the cells during the next 24 hours was monitored using an enzyme-based viability assay (see Example 8, Materials and Methods).
To monitor cell growth, both the cell proliferation reagent WST-1 (Roche) and BrdU (Sigma) were used. A total of 0.4×10^4 (WST-1) or 1×10^4 (BrdU) wild-type and tPA-deficient fibroblasts were seeded in triplicate-hexaplicate, and after attachment they were serum-starved overnight. Serum-starved cells were counted (WST-1 seeding control) and alternatively incubated for 24 hours in serum-free medium supplemented with 1 mg/ml BSA, and 50 μM BrdU in the BrdU experiment, in the absence or presence of 50 ng/ml activated PDGF-CC or tPA protein (#116, American Diagnostica Inc.). Upon counting, WST-1 reagent was added and measured according to the manufacturer's protocol using an ELISA reader. […] Quantification of the BrdU-positive cells was performed by counting all cells along the vertical and horizontal diameters of all wells.

latent PDGF-DD = latent PDGF-DD (Homo sapiens, UniProt Q9GZP0); test: Cotransfection assay in COS-1 cells: protease plus full-length PDGF-D; assay type: cell-based; set-up: cotransfected with full-length PDGF-C (Li et al, 2000), full-length PDGF-D (Bergsten et al, 2001); expressed in transfected cells; host or cells: COS-1 cells; settings: COS-1 conditioned medium, immunoblot
From the text: A cotransfection assay was established to identify serine proteases able to cleave and activate latent PDGF-CC. Expression plasmids encoding the relevant enzymes and full-length PDGF-C were cotransfected into COS-1 cells, and aliquots of the conditioned media from the transfectants were subjected to SDS-PAGE and immunoblotting using antibodies to the growth factor domain of PDGF-C. […] As a specificity control, the ability of tPA and NT to use full-length PDGF-DD as the substrate in the cotransfection assay was analysed. […] One difference in the latter results, as compared with the results from the cotransfection assay, was that purified tPA generated a second intermediate species of 32 kDa using latent PDGF-CC as the substrate. […]
To test the endogenous expression of PDGF-CC, subconfluent AG1523 cells and primary fibroblast cultures were cultured in serum-free DMEM overnight. […] In the case of the primary cultures, total protein concentration was measured and normalized (Bradford, 1976). […] PDGF-C and PDGF-D were detected by immunoblotting using affinity-purified polyclonal rabbit antibodies against PDGF-C (Li et al, 2000) and PDGF-D (Bergsten et al, 2001), respectively. The His6-tagged proteins were detected using an anti-His monoclonal antibody (C-terminal, Invitrogen). tPA was detected using sheep polyclonal antibodies against human tPA (ab9030, Abcam).

tPA: tissue plasminogen activator, secreted serine protease; expressed, purified from human melanoma cells or recombinant
rescue of growth of tPA-deficient fibroblasts [1]: allowed the cells to grow similar to the wild-type fibroblasts
cleavage and activation of latent PDGF-DD by the coexpressed protease (latent PDGF-DD): neither of the two enzymes was able to cleave and activate latent PDGF-DD
